Consider 22 molecules from patent US11964956B2, “Cannabinergic compounds and uses thereof” (Northeastern University, priority 2012, dated 2024).

Where two headings read alike, the source gives them in different places.

Test [1] concerns the target T1, rCB1 (Rattus norvegicus, UniProt P20272). As to the kind of experiment: rCB1 competition-equilibrium binding with [3H]CP-55,940, rat brain membranes. On the set-up: Frozen rat brains (CB1 source) are obtained from Pel-Freeze Biologicals; tissue Pel-Freeze Biologicals (Rogers, AK); host or cells: rat brain membranes. How it is done: Frozen rat brains (CB1 source) are obtained from Pel-Freeze Biologicals (Rogers, AK) and stored at −80° C. until use. Membranes are prepared according to the method described by Dodd et al. and used in our laboratory as reported.
(§1) All the cannabinoids discussed in this invention are tested for their ability to bind to CB 1 and CB2 receptors using membranes from rat brain or HEK293 cells expressing either mCB2 or hCB2, respectively via competition-equilibrium binding using [^3H]CP-55,940. Results are analyzed using nonlinear regression to determine ligand IC50 (Prism by GraphPad Software, Inc.), and Ki values are calculated from the IC50. IC50 and Ki values are determined from at least three independent experiments.
(§2) Some disclosed compounds were tested for CB1 and CB2 receptor binding affinity, which can be represented by a Ki value. The Ki value is the affinity constant and describes the affinity of the compound for the receptor. […] A detailed description of the methods used to test binding affinity of compounds is given in US 2007/0135388 and in Papahatjis, et al., J. Med. Chem. (2007) 4048, the content of each of which is hereby incorporated by reference.

The next test addresses T2, hCB2 (Homo sapiens, UniProt P34972).
T2 construct: expressed in transfected cells; host or cells: HEK293
As to the kind of experiment: hCB2 competition-equilibrium binding with [3H]CP-55,940, HEK293 membranes. How it is done: (§3) HEK293 cells expressing hCB1 or hCB2 or mCB2 receptor are used for membrane preparations according to Abadji et al. The resulting pellet is resuspended in 10 mM Tris-chloride, pH 7.4, with 5 mM MgCl2 and 2 mM EDTA (TME), rapidly frozen in liquid nitrogen and stored at −80° C. for no longer than two months. Protein content is assayed by using the Bio-Rad protein assay according to the manufacturer's protocol.
as §1, §2

The target in another test is T3, mCB2 (Mus musculus, UniProt P47936).
T3 construct: expressed in transfected cells; host or cells: HEK293
T3 sequence (P47936 whole entry): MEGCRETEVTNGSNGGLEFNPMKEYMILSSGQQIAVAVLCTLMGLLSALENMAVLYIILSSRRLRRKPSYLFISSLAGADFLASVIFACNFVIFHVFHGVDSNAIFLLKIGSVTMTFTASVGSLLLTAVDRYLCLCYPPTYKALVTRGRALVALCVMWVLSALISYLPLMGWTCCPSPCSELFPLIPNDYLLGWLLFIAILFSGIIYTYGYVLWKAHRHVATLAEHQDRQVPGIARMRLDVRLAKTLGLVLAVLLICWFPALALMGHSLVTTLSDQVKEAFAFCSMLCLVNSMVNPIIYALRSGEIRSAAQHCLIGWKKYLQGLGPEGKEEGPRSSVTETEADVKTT
The experiment in a line: mCB2 competition-equilibrium binding with [3H]CP-55,940, HEK293 membranes. How it is done:
as §3, §1, §2

Test [2] has as its target T1, rCB1. As to the kind of experiment: cAMP assay, rCB1. It counts as cell-based. The following applies: for Emax: cAMP assay. How it is done:
Functional characterization of some of the disclosed compounds was performed by using the cyclic adenosine monophosphate (cAMP) assay. The functional potency of the compound in the cAMP assay is represented by the EC50 value. The lower the EC50 value, the higher the functional potency. A detailed description of the cyclic adenosine monophosphate (cAMP) assay is given in Nikas et al. J. Med. Chem. (2010) 6996, the content of which is incorporated herein by reference. Table 10 lists the EC50 values of certain compounds of Formula (Je) in the cAMP assay.
For orientation: Cyclic AMP is a second messenger, typically raised through Gs and lowered through Gi signalling.

T2 sequence (P34972 whole entry): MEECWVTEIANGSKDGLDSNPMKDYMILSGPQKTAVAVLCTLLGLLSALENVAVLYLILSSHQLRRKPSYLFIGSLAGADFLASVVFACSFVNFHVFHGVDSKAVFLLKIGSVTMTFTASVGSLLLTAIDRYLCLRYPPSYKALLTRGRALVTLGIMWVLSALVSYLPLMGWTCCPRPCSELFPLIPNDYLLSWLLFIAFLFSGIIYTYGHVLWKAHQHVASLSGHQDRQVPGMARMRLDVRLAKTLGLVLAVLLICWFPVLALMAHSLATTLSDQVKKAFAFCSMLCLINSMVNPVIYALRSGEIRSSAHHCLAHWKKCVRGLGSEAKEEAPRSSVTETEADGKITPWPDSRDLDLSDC
T1 sequence (P20272 whole entry): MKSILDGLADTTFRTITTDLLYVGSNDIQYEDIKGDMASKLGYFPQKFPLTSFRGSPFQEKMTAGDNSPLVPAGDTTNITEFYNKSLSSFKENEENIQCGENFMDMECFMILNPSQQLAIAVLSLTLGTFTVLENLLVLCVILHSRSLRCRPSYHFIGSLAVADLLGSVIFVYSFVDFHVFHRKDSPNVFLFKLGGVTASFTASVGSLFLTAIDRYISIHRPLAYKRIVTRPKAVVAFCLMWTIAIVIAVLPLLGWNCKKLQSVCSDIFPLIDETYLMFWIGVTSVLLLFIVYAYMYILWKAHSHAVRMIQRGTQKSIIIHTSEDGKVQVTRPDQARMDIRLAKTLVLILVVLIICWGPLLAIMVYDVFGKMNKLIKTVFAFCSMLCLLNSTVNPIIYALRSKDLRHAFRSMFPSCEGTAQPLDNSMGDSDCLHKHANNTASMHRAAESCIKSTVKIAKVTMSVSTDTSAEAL

As usually defined, the Ki is a dissociation constant, usually derived from enzyme kinetics or from competition with a known ligand. For `CCCCOC(=O)C1(c2cc(O)c3c(c2)OC(C)(C)C2CCC(=O)CC32)CCCC1` (stereo not drawn) [AM8137], the inhibition constant (Ki) at rCB1 [1] was found to be 0.4 ± 0.01 nM.

Take `CC1(C)Oc2cc(C3(C(=O)O)CCCC3)cc(O)c2C2CC(=O)CCC21` (stereo not drawn) [AM8139]: the Ki on hCB2, at rCB1 [1] and at mCB2 was greater than 1000 nM each time.

With `CC1=CC[C@H]2[C@@H](C1)c1c(O)cc(C(C)(C)C(=O)OCCCCC#N)cc1OC2(C)C` [Compound 1.3, 4-cyanobutyl-2-((6aS, 10aR)-6a, 7, 10, 10a-tetrahydro-1-hydroxy-6,6,9-trimethyl-6H-benzo[c]chromen-3-yl)-2-methylpropanoate], the Ki at mCB2 (HEK293 cells expressing mCB2, Tables 5-8, read-out: mCB2 Ki) was 0.5 nM.

Turning to `CC1=CC[C@@H]2[C@@H](C1)c1c(O)cc(C(C)(C)C(=O)OCCCN3CCOCC3)cc1OC2(C)C` [Compound 1.25, 3-morpholinopropyl 2-((6aR, 10aR)-1-hydroxy-6,6,9-trimethyl-6a,7, 10, 10a-tetrahydro-6H-benzo[c]chromen-3-yl)-2-methylpropanoate], on mCB2, the affinity, expressed as Ki, was 104 nM.

For the molecule `CC(C)(C(=O)OCCCC#N)c1cc(O)c2c(c1)OC(C)(C)[C@@H]1CC=C(CO)C[C@@H]21` [Compound 2.5], the inhibition constant (Ki) at hCB2, at rCB1 [1] and on mCB2 was 1 nM each time.

The molecule `CCCCOC(=O)C(C)(C)c1cc(O)c2c(c1)OC(C)(C)[C@@H]1CC[C@H](O)C[C@@H]21` [Compound 3.8, Butyl-2-((6aR,9S, 10aR)-6a,7,8,9, 10, 10a-hexahydro-1,9-dihydroxy-6,6-dimethyl-6H-benzo[c]chromen-3-yl)-2-methylpropanoate] registered an inhibitory constant (Ki) at mCB2 of 0.6 nM.

At mCB2, `CCCCCCC(C)(C)c1cc(O)c2c(c1)OC(C)(C)[C@@H]1CCOC(=O)C[C@@H]21` [Compound 3.11, (5aR, 11bR)-11-hydroxy-6,6-dimethyl-9-(2-methyloctan-2-yl)-4,5,5a,6-tetrahydro-1H-oxepino[4,5-c]chromen-2(11bH)-one] displayed a Ki of 8 nM.

Regarding `CCOC(=O)C(C)(C)c1cc(O)c(-c2cccc(C#N)c2)c(O)c1` [Compound 4.2, Ethyl 2-(3′-cyano-2,6-dihydroxybiphenyl-4-yl)-2-methylpropanoate], the Ki at rCB1 [1] (rat brain membranes, Tables 5-8, read-out: rCB1 Ki) was 3.66 nM.

As to `CC(C)(C(=O)OCCCI)c1cc(O)c2c(c1)OC(C)(C)[C@@H]1CCC(=O)C[C@@H]21` [Compound 7, 3-Iodopropyl-2-((6aR,10aR)-1-hydroxy-6,6-dimethyl-9-oxo-6a,7,8,9,10,10a-hexahydro-6H-benzo[c]chromen-3-yl)-2-methylpropanoate], the figures for the Ki on hCB2, at rCB1 [1] and on mCB2 were 5.3 ± 0.9 nM, 0.1 ± 0.04 nM and 1.2 ± 0.6 nM, respectively.

What is called EC50 is the concentration needed to bring the measured effect to its halfway point. A low value points to higher potency in that assay. In general, Emax refers to the size of the effect at its maximum, as opposed to the concentration needed. With `CC(C)(C(=O)OCCCN=C=S)c1cc(O)c2c(c1)OC(C)(C)[C@@H]1CCC(=O)C[C@@H]21` [Compound 10, 3-Isothiocyanatopropyl-2-((6aR,10aR)-1-hydroxy-6,6-dimethyl-9-oxo-6a,7,8,9,10,10a-hexahydro-6H-benzo[c]chromen-3-yl)-2-methylpropanoate], the Ki amounted to 22 nM at hCB2, 7.9 nM at rCB1 [1] and 20 nM on mCB2. Besides, the midpoint of the response on rCB1 [2], the EC50, lay at 13.8 nM. In addition, the Emax at rCB1 [2] turned out to be 38%.

In the case of `CC(C)(CC(=O)O)c1cc(O)c2c(c1)OC(C)(C)[C@@H]1CCC(=O)C[C@@H]21` [Compound 19, 3-((6aR,10aR)-1-Hydroxy-6,6-dimethyl-9-oxo-6a,7,8,9,10,10a-hexahydro-6H-benzo[c]chromen-3-yl)-3-methylbutanoic acid], the Ki on hCB2, on rCB1 [1] and on mCB2 was greater than 1000 nM each time.

Consider `COC(=O)CCC(C)(C)c1cc(O)c2c(c1)OC(C)(C)[C@@H]1CCC(=O)C[C@@H]21` [Compound 23, Methyl-4-((6aR,10aR)-1-hydroxy-6,6-dimethyl-9-oxo-6a,7,8,9,10,10a-hexahydro-6H-benzo[c]chromen-3-yl)-4-methylpentanoate], for which the Ki at hCB2 was determined as 560 ± 64.3 nM; at rCB1 [1], 270 ± 34.6 nM; at mCB2, 540 ± 46.7 nM.

With `CC(C)(C(=O)O)c1cc(O)c2c(c1)OC(C)(C)[C@@H]1CCC(=O)C[C@@H]21` [Compound 32, 2-[(6aR,10aR)-6a,7,8,9,10,10a-Hexahydro-1-hydroxy-6,6-dimethyl-9-oxo-6H-benzo[c]chromen-3-yl]-2-methylpropanoic acid], the Ki on hCB2, at rCB1 [1] and on mCB2 was greater than 1000 nM throughout.

For `CCOC(=O)C(C)(C)c1cc(O)c2c(c1)OC(C)(C)[C@@H]1CCC(=O)C[C@@H]21` [Compound 34a, Ethyl 2-((6aR,10aR)-1-hydroxy-6,6-dimethyl-9-oxo-6a,7,8,9,10,10a-hexahydro-6H-benzo[c]chromen-3-yl)-2-methylpropanoate], the Ki on hCB2 is 67.5 ± 13.4 nM; at rCB1 [1] it was 36.7 ± 5.6 nM; on mCB2, 89.7 ± 18.1 nM.

Turning to `CCCOC(=O)C(C)(C)c1cc(O)c2c(c1)OC(C)(C)[C@@H]1CCC(=O)C[C@@H]21` [Compound 34b, Propyl 2-((6aR,10aR)-1-hydroxy-6,6-dimethyl-9-oxo-6a,7,8,9,10,10a-hexahydro-6H-benzo[c]chromen-3-yl)-2-methylpropanoate], the Ki on hCB2 amounted to 8.3 ± 3.1 nM; on rCB1 [1], 4.8 ± 0.8 nM; at mCB2 it was 32 ± 5.2 nM.

On to `CCCCCCOC(=O)C(C)(C)c1cc(O)c2c(c1)OC(C)(C)[C@@H]1CCC(=O)C[C@@H]21` [Compound 34d, Hexyl 2-((6aR,10aR)-1-hydroxy-6,6-dimethyl-9-oxo-6a,7,8,9,10,10a-hexahydro-6H-benzo[c]chromen-3-yl)-2-methylpropanoate], for which the inhibition constant Ki on hCB2 came to 15.1 ± 2.2 nM; at rCB1 [1] it was 5.9 ± 1.2 nM; at mCB2, 30 ± 7.3 nM.

With `CCC[C@H](C)OC(=O)C(C)(C)c1cc(O)c2c(c1)OC(C)(C)[C@@H]1CCC(=O)C[C@@H]21` [Compound 34e, (S)-pentan-2-yl 2-((6aR,10aR)-1-hydroxy-6,6-dimethyl-9-oxo-6a,7,8,9,10,10a-hexahydro-6H-benzo[c]chromen-3-yl)-2-methylpropanoate], the results for the Ki on hCB2, on rCB1 [1] and on mCB2 were 12.4 ± 2.5 nM, 3 ± 0.5 nM and 54 ± 10.6 nM, respectively. At rCB1 [2], this molecule gave an EC50 of 2.9 nM. Moreover, on rCB1 [2], the Emax stood at 58%.

For `CCCCNC(=O)C(C)(C)c1cc(O)c2c(c1)OC(C)(C)[C@@H]1CCC(=O)C[C@@H]21` [Compound 34i, N-Butyl-2-((6aR,10aR)-1-hydroxy-6,6-dimethyl-9-oxo-6a,7,8,9,10,10a-hexahydro-6H-benzo[c]chromen-3-yl)-2-methylpropanamide], the results for the Ki at hCB2, at rCB1 [1] and on mCB2 were greater than 1000 nM, 115 ± 21.6 nM and greater than 1000 nM, respectively.

`CC(C)(C(=O)OCCCCBr)c1cc(O)c2c(c1)OC(C)(C)[C@@H]1CCC(=O)C[C@@H]21` [Compound 36, 4-Bromobutyl 2-((6aR,10aR)-1-hydroxy-6,6-dimethyl-9-oxo-6a,7,8,9,10,10a-hexahydro-6H-benzo[c]chromen-3-yl)-2-methylpropanoate]: the Ki was determined as 0.002 nM at rCB1 [1] and 1.8 nM at mCB2.

With `CC(C)(C(=O)OCCCCN=[N+]=[N-])c1cc(O)c2c(c1)OC(C)(C)[C@@H]1CCC(=O)C[C@@H]21` [Compound 37, 4-Azidobutyl 2-((6aR,10aR)-1-hydroxy-6,6-dimethyl-9-oxo-6a,7,8,9,10,10a-hexahydro-6H-benzo[c]chromen-3-yl)-2-methylpropanoate], the Ki on hCB2 worked out at 1.7 nM; on rCB1 [1], 1.7 nM; on mCB2, 4.5 nM.

For `CC(C)(C(=O)OCCCCN=C=S)c1cc(O)c2c(c1)OC(C)(C)[C@@H]1CCC(=O)C[C@@H]21` [Compound 38, 4-Isothiocyanatobutyl 2-((6aR,10aR)-1-hydroxy-6,6-dimethyl-9-oxo-6a,7,8,9,10,10a-hexahydro-6H-benzo[c]chromen-3-yl)-2-methylpropanoate], the Ki on hCB2 was determined as 5.2 nM; at rCB1 [1], 4.9 nM; at mCB2 it was 21.4 nM.

For the molecule `CC(C)(C(=O)OCCCCO[N+](=O)[O-])c1cc(O)c2c(c1)OC(C)(C)[C@@H]1CCC(=O)C[C@@H]21` [Compound 39, 4-(Nitrooxy)butyl 2-((6aR,10aR)-1-hydroxy-6,6-dimethyl-9-oxo-6a,7,8,9,10,10a-hexahydro-6H-benzo[c]chromen-3-yl)-2-methylpropanoate], the Ki at hCB2 amounted to 2.6 nM; on rCB1 [1] it was 0.2 nM; at mCB2 it was 2.2 nM.
